Assay results as given in the supplement of paper PMC11061612.

Key:
Assay in all cases: Bliss excess, mean over the matrix (fraction); higher = more synergy
[1] = test system: SW684 (Other Solid Carcinomas)
In short: (§1)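 Bliss excess equals the observed combination effect minus the expected value EA + EB − EA·EB, where EA and EB are the effects of each agent alone. Combination Emax is the second-highest inhibition within the matrix. Inhibition was scaled from CellTiter-Glo 2.0 luminescence, with 0 set by vehicle wells and 1 by blank wells, after 72 hours of two-drug dosing of cells plated in 1536-well plates.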

[2] = test system: LOUCY (T-Lymphoblastic Leukemia)
In short: as §1

[3] = test system: NCI-H1155 (Non-Small Cell Lung Carcinoma)
In short: as §1

[4] = test system: CHL-1 (Melanoma)
In short: as §1

[5] = test system: OCI-AML5 (Acute Myeloid Leukemia)
In short: as §1

[6] = test system: RMG-I (Ovarian Carcinoma)
In short: as §1

[7] = test system: HSC-3 (Oral Cavity Carcinoma)
In short: as §1

[8] = test system: AsPC-1 (Pancreatic Carcinoma)
In short: as §1

[9] = test system: NCI-H810 (Non-Small Cell Lung Carcinoma)
In short: as §1

[10] = test system: RL95-2 (Endometrial Carcinoma)
In short: as §1

[11] = test system: KYM-1 (Rhabdomyosarcoma)
In short: as §1

[12] = test system: RERF-LC-KJ (Lung Adenocarcinoma)
In short: as §1

[13] = test system: COLO-684 (Endometrial Carcinoma)
In short: as §1

[14] = test system: KYSE-70 (Esophageal Squamous Cell Carcinoma)
In short: as §1

[15] = test system: NKM-1 (Acute Myeloid Leukemia)
In short: as §1

[16] = test system: OV-90 (Ovarian Carcinoma)
In short: as §1

[17] = test system: BALL-1 (B-Lymphoblastic Leukemia)
In short: as §1

[18] = test system: NCI-H1623 (Lung Adenocarcinoma)
In short: as §1

[19] = test system: PC-14 (Lung Adenocarcinoma)
In short: as §1

[20] = test system: Becker (Low Grade Glioma)
In short: as §1

Compound	Bliss excess [1]	Bliss excess [2]	Bliss excess [3]	Bliss excess [4]	Bliss excess [5]	Bliss excess [6]	Bliss excess [7]	Bliss excess [8]	Bliss excess [9]	Bliss excess [10]	Bliss excess [11]	Bliss excess [12]	Bliss excess [13]	Bliss excess [14]	Bliss excess [15]	Bliss excess [16]	Bliss excess [17]	Bliss excess [18]	Bliss excess [19]	Bliss excess [20]
CN(CCO)CC[C@H](CSc1ccccc1)Nc1ccc(S(=O)(=O)NC(=O)c2ccc(N3CCC([C@@H](O)c4ccccc4-c4ccc(Cl)cc4)CC3)cc2)cc1S(=O)(=O)C(F)(F)F [AZD4320] + Cn1cnc2c(F)c(Nc3ccc(Br)cc3Cl)c(C(=O)NOCCO)cc21 [Selumetinib] (first compound max 1 µM, 7x7, partner max 3 µM)	0.0194	0.0255	0.0385	-0.0218	0.0137	-0.0401	0.0228	0.0314	-0.0577	0.137	0.0283	0.0144	0.0023	0.0554	-0.0208	0.0304	-0.0246	0.162	0.0379	0.0084
COc1nnc2ccc(N3CCC(c4ccc(OCCN5CCN(C)C(=O)[C@H]5C)cc4)CC3)nn12 [AZD5153] + C=CCn1c(=O)c2cnc(Nc3ccc(N4CCN(C)CC4)cc3)nc2n1-c1cccc(C(C)(C)O)n1 [AZD1775] (first compound max 1 µM, partner max 1 µM)	-0.054	-0.0527	0.0523	-0.0434	-0.0106	-0.0187	-0.0396	0.0167	-0.0578	0.0344	-0.0249	-0.0224	-0.0852	-0.0519	-0.124	-0.0367	-0.0234	-0.0101	-0.0488	-0.0421
COc1nnc2ccc(N3CCC(c4ccc(OCCN5CCN(C)C(=O)[C@H]5C)cc4)CC3)nn12 [AZD5153] + CC1(C)CCC(CN2CCN(c3ccc(C(=O)NS(=O)(=O)c4ccc(NCC5CCOCC5)c([N+](=O)[O-])c4)c(Oc4cnc5[nH]ccc5c4)c3)CC2)=C(c2ccc(Cl)cc2)C1 [Venetoclax] (first compound max 1 µM, 7x7, partner max 1 µM)	-0.0705	0.0241	0.0223	-0.0297	0.0114	-0.0456	-0.0846	-0.0807	-0.0474	-0.0558	-0.0124	-0.0146	-0.0435	-0.0793	-0.0195	-0.085	-0.0141	-0.0448	-0.03	-0.0487
COc1nnc2ccc(N3CCC(c4ccc(OCCN5CCN(C)C(=O)[C@H]5C)cc4)CC3)nn12 [AZD5153] + CCN(CCO)CCCOc1ccc2c(Nc3cc(CC(=O)Nc4cccc(F)c4)[nH]n3)ncnc2c1 [AZD2811] (first compound max 1 µM, 7x7, partner max 1 µM)	-0.0767	0.0305	0.0177	0.0413	-0.0282	-0.0479	-0.0509	-0.0427	-0.0068	-0.154	-0.0682	-0.075	0.0152	-0.0265	-0.0201	-0.0226	0.0056	-0.0117	-0.0017	0.0134
COc1nnc2ccc(N3CCC(c4ccc(OCCN5CCN(C)C(=O)[C@H]5C)cc4)CC3)nn12 [AZD5153] + C[C@@H]1COCCN1C2=NC(=NC(=C2)C3(CC3)[S@](=N)(=O)C)C4=C5C=CNC5=NC=C4 [AZD6738] (first compound max 1 µM, 7x7, partner max 10 µM)	-0.042	-0.0232	0.0406	-0.0569	0.0158	-0.0261	-0.0181	0.0778	-0.0236	0.0017	-0.0398	0.0393	-0.0231	-0.0358	-0.0373	-0.0249	0.0119	-0.0247	0.0294	0.0137
COc1nnc2ccc(N3CCC(c4ccc(OCCN5CCN(C)C(=O)[C@H]5C)cc4)CC3)nn12 [AZD5153] + Cc1c2c(nn1C)CSCc1cc(n(C)n1)CSc1cc(c3ccccc3c1)OCCCc1c(C(=O)O)n(C)c3c-2c(Cl)ccc13 [AZD5991] (first compound max 1 µM, 7x7, partner max 1 µM)	-0.108	0.0187	-0.0091	0.0613	0.134	-0.0553	-0.0069	-0.0639	0.0448	-0.0414	0.0335	0.006	-0.0106	-0.0652	-0.0491	-0.0389	-0.0409	0.049	-0.0145	-0.0815
COc1nnc2ccc(N3CCC(c4ccc(OCCN5CCN(C)C(=O)[C@H]5C)cc4)CC3)nn12 [AZD5153] + Cn1cnc2c(F)c(Nc3ccc(Br)cc3Cl)c(C(=O)NOCCO)cc21 [Selumetinib] (first compound max 1 µM, 7x7, partner max 10 µM)	-0.0187	0.0484	-0.035	0.0049	0.0945	-0.0486	-0.0211	-0.0238	-0.0224	-0.0221	0.0086	-0.113	-0.0134	0.0097	0.0071	-0.0203	-0.0274	0.0294	0.007	0.0472
Cc1c2c(nn1C)CSCc1cc(n(C)n1)CSc1cc(c3ccccc3c1)OCCCc1c(C(=O)O)n(C)c3c-2c(Cl)ccc13 [AZD5991] + C1CN(CCC1(C(=O)N[C@@H](CCO)C2=CC=C(C=C2)Cl)N)C3=NC=NC4=C3C=CN4 [Capivasertib] (first compound max 1 µM, 7x7, partner max 3 µM)	-0.0298	0.0143	0.0369	0.0092	-0.0204	-0.0488	-0.0539	-0.0881	0.0083	0.0001	0.0807	-0.0112	-0.0411	0.0065	-0.0335	0.0139	0.0369	0.0471	0.0145	-0.0169
Cc1c2c(nn1C)CSCc1cc(n(C)n1)CSc1cc(c3ccccc3c1)OCCCc1c(C(=O)O)n(C)c3c-2c(Cl)ccc13 [AZD5991] + C=CCn1c(=O)c2cnc(Nc3ccc(N4CCN(C)CC4)cc3)nc2n1-c1cccc(C(C)(C)O)n1 [AZD1775] (first compound max 1 µM, partner max 1 µM)	-0.0161	-0.003	0.0707	-0.0218	-0.0036	-0.0369	0.0184	0.0293	0.0025	0.0116	0.0583	0.0255	-0.0587	0.015	-0.0519	-0.0929	-0.0181	0.0167	-0.001	-0.0319
Cc1c2c(nn1C)CSCc1cc(n(C)n1)CSc1cc(c3ccccc3c1)OCCCc1c(C(=O)O)n(C)c3c-2c(Cl)ccc13 [AZD5991] + CC1(C)CCC(CN2CCN(c3ccc(C(=O)NS(=O)(=O)c4ccc(NCC5CCOCC5)c([N+](=O)[O-])c4)c(Oc4cnc5[nH]ccc5c4)c3)CC2)=C(c2ccc(Cl)cc2)C1 [Venetoclax] (first compound max 1 µM, 7x7, partner max 1 µM)	-0.0596	0.154	-0.0079	0.227	0.0667	-0.0289	0.005	-0.0698	-0.0267	-0.0463	0.0117	0.0047	-0.005	-0.0296	0.0517	-0.0303	0.117	0.0111	0.0054	-0.0033
Cc1c2c(nn1C)CSCc1cc(n(C)n1)CSc1cc(c3ccccc3c1)OCCCc1c(C(=O)O)n(C)c3c-2c(Cl)ccc13 [AZD5991] + CCN(CCO)CCCOc1ccc2c(Nc3cc(CC(=O)Nc4cccc(F)c4)[nH]n3)ncnc2c1 [AZD2811] (first compound max 1 µM, 7x7, partner max 1 µM)	-0.069	-0.0389	0.0911	0.114	-0.0165	0.0126	0.0617	-0.0331	0.114	0.0272	0.0646	0.0402	0.0271	0.0651	0.0291	0.0136	0.213	0.0711	0.0381	-0.0165
Cc1c2c(nn1C)CSCc1cc(n(C)n1)CSc1cc(c3ccccc3c1)OCCCc1c(C(=O)O)n(C)c3c-2c(Cl)ccc13 [AZD5991] + CN(C)CCCOc1ccc(-c2ccc3ncc4c(c3c2)n(C2CCOCC2)c(=O)n4C)cn1 [AZD0156] (first compound max 1 µM, 7x7, partner max 1 µM)	-0.0222	0.0428	0.0521	0.0218	0.0075	0.0092	0.0527	-0.0137	-0.0034	-0.0252	0.0046	-0.0296	-0.0546	0.0286	-0.152	-0.0068	0.0361	-0.015	0.0236	-0.0128
Cc1c2c(nn1C)CSCc1cc(n(C)n1)CSc1cc(c3ccccc3c1)OCCCc1c(C(=O)O)n(C)c3c-2c(Cl)ccc13 [AZD5991] + C[C@@H]1COCCN1C2=NC(=NC(=C2)C3(CC3)[S@](=N)(=O)C)C4=C5C=CNC5=NC=C4 [AZD6738] (first compound max 1 µM, 7x7, partner max 10 µM)	0.0472	-0.0398	0.0521	0.0789	-0.0011	0.0575	0.0094	0.0026	0.0552	-0.0023	0.1	0.0331	-0.0426	0.0485	0.024	0.0235	0.0406	0.0581	0.0229	0.0152
Cc1c2c(nn1C)CSCc1cc(n(C)n1)CSc1cc(c3ccccc3c1)OCCCc1c(C(=O)O)n(C)c3c-2c(Cl)ccc13 [AZD5991] + C[C@@H](Nc1cc(F)cc(F)c1)c1cc(C(=O)N(C)C)cc2c(=O)cc(N3CCOCC3)oc12 [AZD8186] (first compound max 1 µM, 7x7, partner max 3 µM)	-0.0553	-0.0772	-0.0105	0.0292	-0.0146	-0.0247	-0.001	-0.0414	-0.034	-0.0802	0.0291	0.0598	-0.0292	-0.0136	-0.0247	-0.0496	-0.0163	-0.0133	0.0129	0.0192
